Source: the supplement of paper PMC10307832

Key:
Assay in all cases: relative viability (nuclei count vs DMSO), 5 days (fraction); higher = more cells survive
[1] = compound: C1/C(=C\C2=CC=CS2)/C(=O)/C(=C/C3=CC=CS3)/C1 + N=C(N)NC(=N)NCCc1ccccc1 [Phenformin] (partner 250 µM)
How it was run: (§1)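 Each reported value is a median over duplicate plates. It expresses relative viability: treated-well nuclei count divided by vehicle-well nuclei count. Lung cancer cell lines in 1536-well plates were dosed by pin tool a day after seeding, alone with one drug or with a fixed anchor-drug dose plus five library-drug doses (not always all listed) in √10 steps, and nuclei were counted after 5 days.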

[2] = compound: C[C@]12O[C@H](C[C@]1(O)CO)n1c3ccccc3c3c4c(c5c6ccccc6n2c5c31)CNC4=O [Lestaurtinib] + CC(C)C[C@H](NC(=O)[C@H](Cc1ccccc1)NC(=O)c1cnccn1)B(O)O [Bortezomib] (partner 0.002 µM)
How it was run: as §1

[3] = compound: C1/C(=C\C2=CC=CS2)/C(=O)/C(=C/C3=CC=CS3)/C1 + C[C@@H](Oc1cc(-c2cnn(C3CCNCC3)c2)cnc1N)c1c(Cl)ccc(F)c1Cl [Crizotinib] (partner 1 µM)
How it was run: as §1

TPCA-1 + Dasatinib = compound: C1=CC(=CC=C1C2=CC(=C(S2)NC(=O)N)C(=O)N)F [TPCA-1] + Cc1nc(Nc2ncc(C(=O)Nc3c(C)cccc3Cl)s2)cc(N2CCN(CCO)CC2)n1 [Dasatinib] (partner 0.075 µM)
How it was run: as §1

Cell Line | relative viability ([1]; first compound 0.2 µM) | relative viability ([1]; first compound 0.6325 µM) | relative viability ([1]; first compound 2 µM) | relative viability ([1]; first compound 6.325 µM) | relative viability ([1]; first compound 20 µM) | relative viability ([2]; first compound 0.005 µM) | relative viability ([2]; first compound 0.01581 µM) | relative viability ([2]; first compound 0.05 µM) | relative viability ([2]; first compound 0.1581 µM) | relative viability ([2]; first compound 0.5 µM) | relative viability ([3]; first compound 0.2 µM) | relative viability ([3]; first compound 0.6325 µM) | relative viability ([3]; first compound 2 µM) | relative viability ([3]; first compound 6.325 µM) | relative viability ([3]; first compound 20 µM) | relative viability (TPCA-1 + Dasatinib; first compound 0.04 µM) | relative viability (TPCA-1 + Dasatinib; first compound 0.1265 µM) | relative viability (TPCA-1 + Dasatinib; first compound 0.4 µM) | relative viability (TPCA-1 + Dasatinib; first compound 1.265 µM) | relative viability (TPCA-1 + Dasatinib; first compound 4 µM)
NCI-H2023 | 0.414 | 0.488 | 0.439 | 0.396 | 0.383 | 1.03 | 1.11 | 0.731 | 0.65 | 0.108 | 0.685 | 0.602 | 0.762 | 0.652 | 0.684 | 0.731 | 0.521 | 0.527 | 0.508 | 0.216
NCI-H2085 | 0.81 | 0.791 | 0.839 | 0.619 | 0.644 | 1 | 0.969 | 0.973 | 1.33 | 0.803 | 0.789 | 0.935 | 0.83 | 0.856 | 0.952 | 0.267 | 0.262 | 0.246 | 0.265 | 0.257
NCI-H2087 | 0.5 | 0.546 | 0.553 | 0.393 | 0.431 | 0.882 | 0.936 | 0.745 | 0.764 | 0.354 | 0.867 | 0.901 | 0.746 | 0.735 | 0.993 | 1.15 | 0.658 | 0.816 | 0.745 | 0.397
NCI-H2126 | 0.549 | 0.551 | 0.566 | 0.483 | 0.536 | 1.19 | 1.11 | 0.957 | 1.17 | 0.861 | 1 | 1.1 | 0.989 | 0.887 | 0.986 | 0.617 | 0.531 | 0.602 | 0.549 | 0.437
NCI-H2228 | 0.422 | 0.297 | 0.369 | 0.335 | 0.357 | 0.994 | 0.805 | 0.629 | 0.476 | 0.185 | 0.669 | 0.528 | 0.515 | 0.374 | 0.441 | 0.669 | 0.491 | 0.521 | 0.386 | 0.301
NCI-H2347 | 0.362 | 0.592 | 0.283 | – | 0.49 | 0.871 | 1.49 | 1.17 | 0.961 | 0.797 | 0.717 | 0.771 | 0.7 | 0.689 | 0.606 | 0.296 | 0.277 | 0.26 | 0.258 | 0.262
NCI-H2405 | 0.404 | 0.386 | 0.441 | 0.413 | 0.402 | 1 | 1.01 | 0.883 | 0.977 | 0.734 | 0.904 | 0.851 | 0.851 | 0.798 | 0.839 | 0.226 | 0.216 | 0.22 | 0.207 | 0.208
NCI-H3122 | 0.442 | 0.377 | 0.41 | 0.307 | 0.333 | 1.06 | 1.05 | 1.06 | 1.05 | 0.502 | 0.247 | 0.273 | 0.279 | 0.215 | 0.272 | 1.01 | 0.828 | 0.866 | 0.851 | 0.517
PC-3 [JPC-3] | 0.494 | 0.495 | 0.452 | 0.423 | 0.458 | 0.82 | 0.788 | 0.738 | 0.914 | 0.746 | 0.978 | 0.997 | 0.944 | 0.859 | 1 | 0.959 | 0.99 | 1.04 | 0.943 | 0.999
PC-14 | 0.823 | 0.762 | 0.611 | 0.539 | 0.631 | 0.993 | 0.778 | 0.83 | 0.623 | 0.434 | 0.995 | 0.838 | 0.819 | 0.725 | 0.956 | 0.324 | 0.245 | 0.283 | 0.144 | 0.0724
RERF-LC-KJ | 0.407 | 0.461 | 0.474 | 0.432 | 0.432 | 1.43 | 1.17 | 0.908 | 0.836 | 0.728 | 0.794 | 0.843 | 0.832 | 0.763 | 0.754 | 0.988 | 0.668 | 0.76 | 0.591 | 0.508
SK-LU-1 | 0.634 | 0.56 | 0.672 | 0.473 | 0.486 | 0.975 | 1.26 | 0.763 | 0.673 | 0.362 | 1.12 | 1.03 | 0.925 | 0.763 | 0.923 | 0.217 | 0.189 | 0.209 | 0.183 | 0.173
SW 1573 | 0.397 | 0.412 | 0.355 | 0.363 | 0.398 | 1.2 | 1.05 | 0.842 | 0.916 | 0.727 | 0.778 | 0.693 | 0.889 | 0.749 | 0.895 | 0.669 | 0.375 | 0.476 | 0.361 | 0.336
